Measurements reported in the CheMixHub viscosity set.
± gives the uncertainty stated by the source.

Assay: xn = mol fraction of the nth substance listed

CC(Cl)(Cl)Cl + CCCCCCC
303.15 K, 101 kPa
Details	viscosity [mPa·s]
x1 = 0.138	0.3932 ± 0.01
x1 = 0.2468	0.4161 ± 0.011
x1 = 0.355	0.442 ± 0.011
x1 = 0.4494	0.4689 ± 0.012
x1 = 0.5571	0.5061 ± 0.013
x1 = 0.6233	0.5327 ± 0.014
x1 = 0.7095	0.5716 ± 0.015
x1 = 0.7857	0.6088 ± 0.016
x1 = 0.8262	0.63 ± 0.016
x1 = 0.9288	0.6849 ± 0.018

CC(C)C1CCCCC1 + CCCCO
viscosity [mPa·s], 100 kPa
Details	x1 = 0.0995	x1 = 0.1998	x1 = 0.2959	x1 = 0.4009	x1 = 0.4944	x1 = 0.5738	x1 = 0.6818	x1 = 0.7966	x1 = 0.8935
293.15 K	2.489 ± 0.053	2.126 ± 0.045	1.858 ± 0.039	1.614 ± 0.034	1.45 ± 0.031	1.325 ± 0.028	1.214 ± 0.026	1.139 ± 0.024	1.105 ± 0.023
298.15 K	2.189 ± 0.047	1.884 ± 0.04	1.654 ± 0.035	1.449 ± 0.031	1.31 ± 0.028	1.207 ± 0.026	1.114 ± 0.024	1.051 ± 0.022	1.022 ± 0.022
303.15 K	1.94 ± 0.041	1.678 ± 0.036	1.481 ± 0.031	1.308 ± 0.028	1.189 ± 0.025	1.104 ± 0.023	1.024 ± 0.022	0.974 ± 0.021	0.95 ± 0.02
308.15 K	1.726 ± 0.037	1.501 ± 0.032	1.332 ± 0.028	1.185 ± 0.025	1.085 ± 0.023	1.014 ± 0.022	0.947 ± 0.02	0.905 ± 0.019	0.885 ± 0.019
313.15 K	1.539 ± 0.033	1.348 ± 0.029	1.203 ± 0.026	1.078 ± 0.023	0.994 ± 0.021	0.935 ± 0.02	0.879 ± 0.019	0.844 ± 0.018	0.827 ± 0.018
318.15 K	1.379 ± 0.029	1.216 ± 0.026	1.092 ± 0.023	0.985 ± 0.021	0.915 ± 0.019	0.866 ± 0.018	0.818 ± 0.017	0.789 ± 0.017	0.774 ± 0.016
323.15 K	1.241 ± 0.026	1.1 ± 0.023	0.995 ± 0.021	0.906 ± 0.019	0.845 ± 0.018	0.804 ± 0.017	0.764 ± 0.016	0.738 ± 0.016	0.727 ± 0.015

CC(Cl)(Cl)Cl + CC#N
303.15 K, 101.32 kPa
Details	viscosity [mPa·s]
x2 = 0.1263	0.6581 ± 0.0083
x2 = 0.2051	0.6229 ± 0.008
x2 = 0.2652	0.5971 ± 0.0078
x2 = 0.3855	0.5476 ± 0.0074
x2 = 0.478	0.5114 ± 0.0071
x2 = 0.6358	0.4505 ± 0.0066
x2 = 0.6802	0.4339 ± 0.0065
x2 = 0.7999	0.3906 ± 0.0061
x2 = 0.8673	0.3675 ± 0.0059
x2 = 0.9074	0.3539 ± 0.0058

CC(Cl)(Cl)Cl + CCOC(C)=O
Details	viscosity [mPa·s]
298.15 K, 101.33 kPa, x1 = 0.098	0.4485 ± 0.0048
298.15 K, 101.33 kPa, x1 = 0.197	0.4712 ± 0.005
298.15 K, 101.33 kPa, x1 = 0.297	0.4964 ± 0.0052
298.15 K, 101.33 kPa, x1 = 0.398	0.5244 ± 0.0055
298.15 K, 101.33 kPa, x1 = 0.498	0.5554 ± 0.0057
298.15 K, 101.33 kPa, x1 = 0.598	0.5901 ± 0.006
298.15 K, 101.33 kPa, x1 = 0.699	0.6295 ± 0.0064
298.15 K, 101.33 kPa, x1 = 0.771	0.665 ± 0.0067
298.15 K, 101.33 kPa, x1 = 0.885	0.7192 ± 0.0072
303.15 K, 101.3 kPa, x2 = 0.1006	0.6668 ± 0.0059
303.15 K, 101.3 kPa, x2 = 0.1989	0.6158 ± 0.0057
303.15 K, 101.3 kPa, x2 = 0.2986	0.5731 ± 0.0055
303.15 K, 101.3 kPa, x2 = 0.4038	0.5366 ± 0.0054
303.15 K, 101.3 kPa, x2 = 0.4965	0.5101 ± 0.0053
303.15 K, 101.3 kPa, x2 = 0.5999	0.4831 ± 0.0052
303.15 K, 101.3 kPa, x2 = 0.7003	0.4579 ± 0.0051
303.15 K, 101.3 kPa, x2 = 0.7974	0.4366 ± 0.005
303.15 K, 101.3 kPa, x2 = 0.9008	0.4167 ± 0.0049
